In patent US20220220481A1, “LIPID OLIGONUCLEOTIDE ANTISENSE AGAINST ANTIBIOTIC RESISTANCE” (priority 2019, published 2022):

Assays:
[1] = test system: E. coli K12 (CFX sensitive strain); assay: Ceftriaxone MIC with or without ASOs/LASOs, liquid micro-dilution, sensitive strain; format: cell-based, Escherichia coli; conditions: K12, 24 h, SD 0, n=3
Description: (§1) Determination of minimum inhibitor concentration (MICs) of free CFX with or without ASOs/LASOs was performed on different strains of E. coli, i.e. the CFX sensitive strain K12, and the two resistant strains TcK12 and Ec3536.
(§2) MICs of free CFX with ASOs/LASOs were determined in accordance with the standard method of liquid micro-dilution.
Each bacterial strain that had been frozen at −80° C. was isolated on Mueller-Hinton (MH) agar during 16 h at 37° C. A bacterial suspension in solution of 0.85% NaCl was prepared in order to obtain a turbidity equivalent to standard 0.5 of McFarland range and then diluted 1/100 in MH that correspond to a bacterial inoculum of ca. 10^6 CFU/mL. The bacterial suspension was afterwards mixed with ASOs, LASOs at 2-fold desired concentration in MH. Then 50 μL of bacterial suspension mixed with 50 μl MH, containing oligonucleotides or CFX, was dispensed into the microplate wells immediately. The final volume per well was 100 μL. The concentration of oligonucleotides in well was fixed at 5 μM except for dose-effect tests. The concentration range of LASOs from 0.05 μM to 50 μM was tested. The range of CFX concentration was adjusted to surround the MIC of each bacterial strain. […]
(§3) Preliminary data allowed to optimize the analysis of microplates using turbidimeter (Apollo LB 911 (Berthold)) at the wavelength of 620 nm, read in triplicate at 0 h, and 24 h. […]

[2] = test system: E. coli TcK12 (resistant, blaCTX-M-15 plasmid); assay: Ceftriaxone MIC with or without ASOs/LASOs, liquid micro-dilution, resistant laboratory strain; format: cell-based, Escherichia coli; conditions: TcK12, 24 h
Excerpt: E. coli strains used included the clinical strain Ec3536 collected from a urine sample of the community patient and provided from the MFP Laboratory collection (Arpin et al. (2009) J. Antimicrob. Chemother. 63:1205-1214). Its conjugative plasmid containing the blaCTX-M-15 gene was transferred by conjugation experiment in a laboratory recipient cell of E. coli K12. Consequently, the transconjugant E. coli TcK12 was resistant to ceftriaxone (CFX) (Arpin et al. (2009) J. Antimicrob. Chemother. 63:1205-1214).
as §1, §2
Each bacterial strain that had been frozen at −80° C. was isolated on Mueller-Hinton (MH) agar during 16 h at 37° C. A bacterial suspension in solution of 0.85% NaCl was prepared in order to obtain a turbidity equivalent to standard 0.5 of McFarland range and then diluted 1/100 in MH that correspond to a bacterial inoculum of ca. 10^6 CFU/mL. […]
as §3

SMILES: CO/N=C(\C(=O)N[C@@H]1C(=O)N2C(C(=O)O)=C(CSc3nc(=O)c(=O)[nH]n3C)CS[C@H]12)c1csc(N)n1 [CFX, ceftriaxone]
- CFX MIC in absence of antisense sequences [1]: 0.06 µg/mL
- CFX MIC without oligonucleotide (means of MICs) [2]: 1365 µg/mL
